Key:
[1] = target: T1, PAP (polyphosphate:AMP phosphotransferase) (Acinetobacter johnsonii, UniProt Q83XD3); test: Synthesis of NDP from NMP with PAP and polyphosphate, HPLC analysis; format: biochemical; details: 10 mM NMP, polyphosphate 30 mM, PAP 16 units/ml, 37° C., 30 minutes
T1 construct: the PAP gene codes for the polypeptide (molecular weight: 55.8 kd) comprising 475 amino acids; made in house; host or cells: E. coli JM109 carrying plasmid pPAP2

[2] = target: T1, PAP (polyphosphate:AMP phosphotransferase); test: Substrate specificity of PAP: NDP or dNDP produced from NMP or dNMP, measured by HPLC; format: biochemical; details: relative to phosphorylation of AMP = 100%; 5 mM NMP or dNMP, polyphosphate 10 mM, 100 mM MgCl2, pH 8.0, 37° C., 10 minutes
Description: To 50 mM Tris HCl buffer solution (pH 8.0) containing 100 mM MgCl2, polyphosphate (10 mM calculated in terms of inorganic phosphate), and 5 mM of various NMP or dNMP was added PAP at various concentration, and the solution was incubate at 37° C. for 10 minutes. The reaction was terminated by heat treatment at 100° C. for 1 minute, and the solution after the reaction was subjected to HPLC to measure the amount of the NDP or the dNDP produced. The specific activity of each NMP or dNMP is shown in Table 1 as a relative value in relation to the specific activity of the PAP in the phosphorylation of the AMP, which is assumed 100%.

[3] = system: PAP from Acinetobacter johnsonii; details: PAP obtained from Acinetobacter johnsonii, reported as AMP-specific; cited from earlier work
[4] = Adenylate kinase activity measurement (ADP from AMP and ATP, HPLC); format: biochemical; details: cell extract; 1 unit = 2 μmole ADP at 37° C. in 1 minute
Description: The unit of the adenylate kinase activity is the one measured and calculated by the procedure as described below. Sample enzyme is added the 50 mM Tris HCl buffer solution (pH 7.8) containing 10 mM magnesium chloride, 10 mM AMP, and 10 mM ATP, and the solution is incubated at 37° C. to promote the reaction, and the reaction is terminated by a 1 minute heating at 100° C. Amount of the ADP in the reaction solution is measured by using HPLC, and the activity of producing 2 μmole of ADP at 37° C. in 1 minute is designated 1 unit.
E. coli adenylate kinase was prepared by the procedure described in the document (Proc. Natl. Acad. Sci. USA, 97, 14168-14171 (2000)). However, the cell extract produced by ultrasonication was used for the enzyme solution, and the specific activity of the adenylate kinase in the enzyme solution was 12.5 units/mg protein.

[5] = Galactokinase activity measurement (galactose-1-phosphate produced, sugar analyzer); format: biochemical; details: partially purified; 1 unit = 1 μmole galactose-1-phosphate at 37° C. in 1 minute
Description: E. coli strain JM109 having the plasmid pDR540 containing E. coli galactokinase gene (Gene, 20, 231(1982), obtained from Pharmacia) was inoculated in 2xYT medium containing 100 μg/ml ampicillin, and the E. coli was cultivated at 37° C. with shaking. When the cell density reached 4×10^8/ml, IPTG was added to the culture medium to a final concentration of 1 mM, and the incubation was continued at 30° C. for another 5 hours. After completion of the cultivation, the cells were collected by centrifugation and suspended in 30 ml buffer solution (50 mM Tris HCl (pH 7.8), 1 mM EDTA). The cells were lyzed by ultrasonication, and bacterial residue was removed by further centrifugation. The solution collected was subjected to ion exchange chromatography using DEAE Toyopearl 650M (Toso) (eluent: 50 mM Tris HCl (pH 7.8), concentration gradient of 0 to 0.5M NaCl) for fractionation and partial purification of the galactokinase. The thus recovered fraction was used for the enzyme solution of galactokinase. […]
The unit of the glactokinase activity was the one measured and calculated by the procedure as described below. […] Amount of the galactose-1-phosphate in the reaction solution was measured by using a sugar analyzer (Dionex), and the activity of producing 1 μmole of galactose-1-phosphate at 37° C. in 1 minute was designated 1 unit.

Optimal pH of PAP = format: biochemical; details: 37° C., 10 minutes, 5 mM AMP, polyphosphate 10 mM, 100 mM magnesium chloride
Description: The reaction was allowed to proceed in either 50 mM maleate or 50 mM Tris HCl buffer solution of various pH at 37° C. for 10 minutes in the presence of 100 mM magnesium chloride, polyphosphate (10 mM calculated in terms of inorganic phosphate), and 5 mM AMP to measure the amount of the ADP produced by HPLC.

[6] = Thermal stability of PAP (residual activity); format: physicochemical; details: 10 minutes, pH 8.0, in the presence of the polyphosphate
Description: PAP was incubated for 10 minutes in 50 mM Tris HCl buffer solution (pH 8.0) containing 100 mM magnesium chloride in the presence or absence of polyphosphate (10 mM calculated in terms of inorganic phosphate) in the bath at various temperatures to measure the residual activity by the procedure as described above.

[7] = pH stability of PAP (residual activity); format: physicochemical; details: pH in the range of 7 to 9; activity at pH 8 = 100%; 37° C., 10 minutes, 100 mM magnesium chloride
Description: PAP was incubated in either 50 mM maleate or 50 mM Tris HCl buffer solution of various pH at 37° C. for 10 minutes in the presence of 100 mM magnesium chloride to measure the residual activity. The residual activity was measured by allowing the reaction to take place at 37° C. for 10 minutes in the presence of 50 mM Tris buffer solution (pH 8.0), 100 mM magnesium chloride, 5 mM AMP, and polyphosphate (10 mM calculated in terms of inorganic phosphate), and measuring the resulting ADP by HPLC.

[8] = PAP activity measurement (ADP produced from AMP and polyphosphate, HPLC); format: biochemical; details: partially purified by DEAE TOYOPEARL 650M; 1 unit = 1 μmole ADP at 37° C. in 1 minute
Description: The “unit” used herein is the unit measured under the following conditions, and 1 unit corresponds to the activity of producing 1 μmole of ADP at 37° C. in 1 minute.
Sample enzyme is added to 50 mM Tris HCl buffer solution (pH 7.8) containing 20 mM magnesium chloride, 10 mM AMP, and polyphosphate (30 mM calculated in terms of inorganic phosphate) and the reaction is allowed to proceed by incubating the temperature at 37° C., and the reaction is thereafter terminated by a heat treatment at 100° C. for 1 minute, and amount of ADP in the reaction solution is measured by high performance liquid chromatography (HPLC).
It is to be noted that this productivity corresponds to about 150 times the productivity of the Acinetobacter Johnsonii. PAP was partially purified by fractionating the extract by ion exchange chromatography using DEAE TOYOPEARL 650M (TOSO) (eluent: 50 mM Tris HCl (pH 7.8), concentration gradient of 0 to 0.5M NaCl), and the collected fraction was used for the enzyme sample. The specific activity of the PAP in the collected fraction was 80.5 units/mg protein.

Molecule	NDP generated [1]	Specific activity (relative value) [2] [%]	other results
Nc1ncnc2c1ncn2[C@@H]1O[C@H](COP(=O)(O)O)[C@@H](O)[C@H]1O [AMP, adenosine 5′-monophosphate]	6.76 mM ADP	100	–
Nc1ccn([C@@H]2O[C@H](COP(=O)(O)O)[C@@H](O)[C@H]2O)c(=O)n1 [CMP]	0.98 mM CDP	0.09	phosphate-transfer by conventional PAP [3]: no phosphotransfer at all
Nc1nc2c(ncn2[C@@H]2O[C@H](COP(=O)(O)O)[C@@H](O)[C@H]2O)c(=O)[nH]1 [GMP]	7.16 mM GDP	10	phosphate-transfer by conventional PAP [3]: some phosphate-transfer
Cc1cn([C@H]2C[C@H](O)[C@@H](COP(=O)(O)O)O2)c(=O)[nH]c1=O [TMP]	–	0.012	–
O=c1ccn([C@@H]2O[C@H](COP(=O)(O)O)[C@@H](O)[C@H]2O)c(=O)[nH]1 [UMP]	0.85 mM UDP	0.13	phosphate-transfer by conventional PAP [3]: no phosphotransfer at all
Nc1ncnc2c1ncn2[C@H]1C[C@H](O)[C@@H](COP(=O)(O)O)O1 [dAMP]	–	18	–
Nc1ccn([C@H]2C[C@H](O)[C@@H](COP(=O)(O)O)O2)c(=O)n1 [dCMP]	–	0.008	–
Nc1nc2c(ncn2[C@H]2C[C@H](O)[C@@H](COP(=O)(O)O)O2)c(=O)[nH]1 [dGMP]	–	2.6	–
adenylate kinase: E. coli adenylate kinase, cell extract used as enzyme solution	–	–	specific activity of the adenylate kinase in the enzyme solution [4]: 12.5 units/mg protein
galactokinase: E. coli galactokinase, partially purified enzyme solution (protein, UniProt P0A6T3 2-382, looked up) Galactokinase: SLKEKTQSLFANAFGYPATHTIQAPGRVNLIGEHTDYNDGFVLPCAIDYQTVISCAPRDDRKVRVMAADYENQLDEFSLDAPIVAHENYQWANYVRGVVKHLQLRNNSFGGVDMVISGNVPQGAGLSSSASLEVAVGTVLQQLYHLPLDGAQIALNGQEAENQFVGCNCGIMDQLISALGKKDHALLIDCRSLGTKAVSMPKGVAVVIINSNFKRTLVGSEYNTRREQCETGARFFQQPALRDVTIEEFNAVAHELDPIVAKRVRHILTENARTVEAASALEQGDLKRMGELMAESHASMRDDFEITVPQIDTLVEIVKAVIGDKGGVRMTGGGFGGCIVALIPEELVPAVQQAVAEQYEAKTGIKETFYVCKPSQGAGQC	–	–	specific activity of the galactokinase in the enzyme solution [5]: 6.5 units/mg protein
polyphosphate:AMP phosphotransferase (protein, listed as Acinetobacter jobnsonii) MDTETIASAVLNEEQLSLDLIEAQYALMNTRDQSNAKSLVILVSGIELAGKGEAVKQLREWVDPRFLYVKADPPHLFNLKQPFWQPYTRFVPAEGQIMVWFGNWYGDLLATAMHASKPLDDTLFDEYVSNMRAFEQDLKNNNVDVLKVWFDLSWKSLQKRLDDMDPSEVHWHKLHGLDWRNKKQYDTLQKLRTRFTDDWQIIDGEDEDLRNHNFAQAILTALRHCPEHEKKAALKWQQAPIPDILTQFEVPQAEDANYKSELKKLTKQVADAMRCDDRKVVIAFEGMDAAGKGGAIKRIVKKLDPREYEIHTIAAPEKYELRRPYLWRFWSKLQSDDITIFDRTWYGRVLVERVEGFATEVEWQRAYAEINRFEKNLSSSQTVLIKFWLAIDKDEQAARFKARESTPHKRFKITEEDWRNRDKWDDYLKAAADMFAHTDTSYAPWYIISTNDKQQARIEVLRAILKQLKADRDTD	–	–	optimal pH (Optimal pH of PAP): approximately 8.5; thermal stability: stable up to [6]: approximately 50 °C; enzymatic activity (residual) after incubation at various pH [7]: ≥ 80%; specific activity of the PAP in the collected fraction [8]: 80.5 units/mg protein

Source: patent US7329522B2, “Polyphosphate:AMP phosphotransferase” (Yamasa Corporation, priority 2002, dated 2008)
